# Results reported in US20230398130A1, “METHODS AND COMPOSITIONS FOR DIFFERENTIATING STEM CELLS” (Massachusetts Institute of Technology, priority 2020, published 2023).
# Entries after “also recorded” stand apart in the source; their conditions may differ.
# How the values were obtained:
# Format in all cases: cell-based, murine
# [1] = system: ISC-enriched organoids; test: Primary screen, 384-well 2.5-D organoid differentiation (ENR+CD, 6 days): basal lysozyme secretion (LYZ.NS); conditions: strictly standardized mean difference, primary screen
# Source text: High-throughput screening.
# [2] = system: ISC-enriched organoids; test: Lysozyme secretion assay, 3-D organoids in ENR+CD, normalized to ATP
# Protocol: (§1) Lysozyme assay (3D culture). ISC-enriched organoids cultured in 3D Matrigel with ENRCV media were passaged to 48-well plate in 3D Matrigel with ENRCV. At day zero, media were replaced to ENR or ENRCD with or without indicated compounds, and media were replaced every other day. At day six, cells were washed twice with basal media and treated with carbamylcholine chloride (Sigma, C4382) for 3 hours. Media were collected and lysozyme activity was measured by EnzChek Lysozyme Assay Kit (ThermoFisher, E22013).
# (§2) Lysozyme secretion assay. ISC-enriched organoids in 3D Matrigel culture were passaged to a 48- or 96-well plate and cultured with ENR or ENR+CD media containing DMSO or each drug for 6 days. DMSO- or drug-containing media were changed every other day. On day 6, cells were washed with basal media twice and treated with basal media with or without 10 μM carbamoylcholine chloride for 3 h in a CO2 incubator at 37° C. A part of the conditioned media was collected and used for lysozyme assay (Thermo, E-22013) following the manufacturer's instruction. The fluorescence was measured using excitation/emission of 485/530 nm. CellTiter-Glo 3D Reagent (Promega, G9681) was added afterward, and the cell culture plate was incubated on an orbital shaker at RT for 30 min to induce cell lysis and to stabilize the luminescent signal. The solution was replaced to a 96-well white microplate, and luminescent signals were measured by a microplate reader (infinite M200, Tecan). The standard curve was prepared by diluting recombinant ATP (Promega, P1132). For both assays, a polynomial cubic curve was fitted to a set of standard data, and each sample value was calculated on the Microsoft Excel.
# as §2, with “in 3-D” for “in 3D”, “μM carbachol” for “μM carbamoylcholine chloride”, “3 hours” for “3 h”, “C. Conditioned” for “C. A part of the conditioned”, “nm. CTG” for “nm. CellTiter-Glo”, “Reagent” for “Reagent (Promega, G9681)”
# [3] = system: ISC-enriched organoids; test: Lysozyme secretion assay, 3-D organoids in ENR, normalized to ATP; conditions: 6 hit compounds, 6 days ENR, 10 μM Cch 3 h
# Protocol: as §1
# Lysozyme secretion assay. ISC-enriched organoids in 3D Matrigel culture were passaged to a 48- or 96-well plate and cultured with ENR or ENR+CD media containing DMSO or each drug for 6 days. DMSO- or drug-containing media were changed every other day. […] The fluorescence was measured using excitation/emission of 485/530 nm. […] The solution was replaced to a 96-well white microplate, and luminescent signals were measured by a microplate reader (infinite M200, Tecan). […] For both assays, a polynomial cubic curve was fitted to a set of standard data, and each sample value was calculated on the Microsoft Excel.
# Lysozyme secretion assay. […] The fluorescence was measured using excitation/emission of 485/530 nm. […] The solution was replaced to a 96-well white microplate, and luminescent signals were measured by a microplate reader (infinite M200, Tecan). […]
# [4] = system: Paneth cells; test: Flow cytometry of 3D-cultured intestinal organoids (ENR+CD, 6 days): Paneth cell fraction (lysozyme-positive, CD24-mid)
# Protocol: Flow cytometry analysis (3D culture). ISC-enriched organoids cultured in 3D Matrigel with ENRCV media were passaged to 24-well plate in 3D Matrigel with ENRCV. At day zero, media were replaced to ENRCD with or without indicated compounds, and media were replaced every other day. […] Flow cytometry was performed using an LSR Fortessa (BD; Koch Institute Flow Cytometry Core at MIT). The data were analyzed using FlowJo v10 software.
# Single live cells were selected by several gating strategies and Paneth cells were identified as lysozyme-high, CD24-mid, side scatter-high (SSC-high) (FIG. 27E). […] To evaluate whether the culture media supplements C and D may alter the effects of the 6 hits, Applicants also performed lysozyme assay in the canonical ENR culture condition in 3-D (because Paneth cells exist in an immature state within ENR, Applicants were unable to robustly quantify Paneth cell number via flow cytometry).
# (§3) Flow cytometry. ISC-enriched organoids in 3D Matrigel culture were passaged to a 48-well plate and induced differentiation for 6 days by ENR+CD media containing DMSO or each drug indicated in the figures. DMSO- or drug-containing media were changed every other day. […] After vigorous pipetting and incubation at 37° C. for 15 min, the cell solution was diluted twice with basal media and centrifuged at 300 rcf for 3 min. […] The cell solution was centrifuged again at 300 rcf for 3 min at 4° C. to pellet the cells. […] Cells were centrifuged again for 3 min at 300 rcf and blocked with staining buffer (FACS buffer containing 0.5% Tween20 (Sigma, P2287)) for 15 min at RT in the dark. […] Flow cytometry was performed using an LSR Fortessa (BD; Koch Institute Flow Cytometry Core at MIT). Flow cytometry data were analyzed using FlowJo X v10.6.1 software.
# Live Paneth cells were identified as LYZ-high, CD24-mid, side scatter-high (SSC-high) (FIG. 50F).
# as §3, with “organoids in 3-D Matrigel culture” for “organoids in 3D Matrigel culture”, “to a 24- or 48-well plate” for “to a 48-well plate”
compound,measurement,setting,value
O=C(/C=C\n1cnc(-c2cc(C(F)(F)F)cc(C(F)(F)F)c2)n1)NNc1cnccn1 [KPT-330],SSMD.LYZ.NS,[1]; 1st of the 4 dose lines of the treatment (dose not given),1.021
same,SSMD.LYZ.NS,[1]; 2nd of the 4 dose lines of the treatment (dose not given),−1.822
same,SSMD.LYZ.NS,[1]; 3rd of the 4 dose lines of the treatment (dose not given),−1.556
same,SSMD.LYZ.NS,[1]; 4th of the 4 dose lines of the treatment (dose not given),−1.714
same,"LYZ secretion, dose dependency","[2]; KPT-330 below 160 nM for 6 days, basal and Cch-stimulated",enhanced Paneth cell activity in a dose-dependent manner; also recorded: LYZ secretion increasing in a dose-dependent manner
same,enrichment in mature Paneth cells at day 6 (LYZ secretion assay),[2]; KPT-330 treatment day 4-6,minorly enriched; also recorded: slightly enriched
same,most effective dose among tested concentrations,"[2]; LYZ secretion, ENR+CD 6 days",160 nM
same,Paneth cell-specific activity (LYZ secretion) in conventional ENR culture,[3],enhancing Paneth cell-specific activity
same,enrichment in mature Paneth cells at day 6,[4]; KPT-330 treatment day 0-2 of 6-day ENR+CD differentiation,greatest enrichment in mature Paneth cells
same,enrichment in mature Paneth cells at day 6,[4]; KPT-330 treatment day 2-4,moderate enrichment
same,enrichment in mature Paneth cells at day 6 (flow cytometry),[4]; KPT-330 treatment day 4-6,no different than untreated
same,mature Paneth cell population within organoids,"[4]; hit compound at most potent dose from 2.5-D screening, ENR+CD 6 days, 3-D culture, vs control",significantly enhanced the mature Paneth cell population
